The first assay deals with mTOR (human) (Homo sapiens (Human), UniProt P42345). The experiment in a line: mTOR (human) radiometric kinase assay. The note with it: IC50 (ATM) at least 2000 times higher compared with IC50 (mTOR). The format is biochemical. As to the method:
mTOR (human) was incubated with 50 mM HEPES pH 7.5, 1 mM EGTA, 0.01% Tween 20, 2 mg/ml of the substrate, 3 mM MnCl2 and [γ-^33P-ATP] (specific activity approximately 500 cpm/pmol, concentration as necessary). The reaction was initiated by addition of MgATP solution. After incubation at room temperature for 40 minutes, the reaction was stopped by addition of 3% phosphoric acid. 10 μl of the reaction solution were then transferred dropwise onto a P30 filtermat and washed three times for 5 min in 75 mM phosphoric acid and once in methanol, dried and evaluated by means of liquid scintillation counting.
As for `COc1cc2ncc3c(c2cc1-c1cnn(C)c1)n(-c1ncc(OC(F)F)cc1F)c(=O)n3C` [compound 114, 1-(5-Difluoromethoxy-3-fluoropyridin-2-yl)-7-methoxy-3-methyl-8-(1-methyl-1H-pyrazol-4-yl)-1,3-dihydroimidazo[4,5-c]-quinolin-2-one], the “ratio IC50 (ATM):IC50(mTOR), selectivity with respect to mTOR” value (shortened to “ratio IC50 (ATM):IC50(mTOR), selectivity”) was “at least 2000 times”.
As for `COc1cc2ncc3c(c2cc1-c1cnn(C)c1)n(-c1cc2[nH]ccc2cn1)c(=O)n3C` [compound 120, 7-Methoxy-3-methyl-8-(1-methyl-1H-pyrazol-4-yl)-1-(1H-pyrrolo[3,2-c]pyridin-6-yl)-1,3-dihydroimidazo-[4,5-c]quinolin-2-one], the “ratio IC50 (ATM):IC50(mTOR), selectivity” value is on record as “at least 2000 times”.
Still for that read-out and setting: to `COc1cc2ncc3c(c2cc1-c1cc[nH]n1)n(-c1cn(C)nc1C)c(=O)n3C` [compound 121, 1-(1,3-Dimethyl-1H-pyrazol-4-yl)-7-methoxy-3-methyl-8-(1H-pyrazol-3-yl)-1,3-dihydroimidazo[4,5-c]-quinolin-2-one] belongs “at least 2000 times”; to `COc1cnc(-n2c(=O)n(C)c3cnc4cc(OC)c(-c5c[nH]nc5C)cc4c32)c(F)c1` [compound 122, 1-(3-Fluoro-5-methoxy-pyridin-2-yl)-7-methoxy-3-methyl-8-(3-methyl-1H-pyrazol-4-yl)-1,3-dihydro-imidazo[4,5-c]quinolin-2-one], “at least 2000 times”.
Still for that read-out and setting: to `CCc1cncc(F)c1-n1c(=O)n(C)c2cnc3cc(OC)c(-c4cn[nH]n4)cc3c21` [compound 125, 1-(3-Ethyl-5-fluoropyridin-4-yl)-7-methoxy-3-methyl-8-(2H-1,2,3-triazol-4-yl)-1,3-dihydroimidazo[4,5-c] quinolin-2-one] belongs “at least 2000 times”; to `CCc1cncc(F)c1-n1c(=O)n(C)c2cnc3cc(OC)c(-c4cn(C)nn4)cc3c21` [compound 126, 1-(3-Ethyl-5-fluoropyridin-4-yl)-7-methoxy-3-methyl-8-(1-methyl-1H-1,2,3-triazol-4-yl)-1,3-dihydroimidazo-[4,5-c]quinolin-2-one], “at least 2000 times”.
On the same count and under the same terms, to `COc1cc2ncc3c(c2cc1-c1ccc2nc(C)[nH]c2c1)n(-c1c(F)cncc1OC)c(=O)n3C` [compound 136, 1-(3-Fluoro-5-methoxy-pyridin-4-yl)-7-methoxy-3-methyl-8-(2-methyl-3H-benzoimidazol-5-yl)-1,3-dihydroimidazo[4,5-c]-quinolin-2-one] belongs “at least 2000 times”; to `CNC(=O)c1cnc(-n2c(=O)n(C)c3cnc4cc(OC)c(-c5cnn(C)c5)cc4c32)c(F)c1` [compound 138, 5-Fluoro-6-[7-methoxy-3-methyl-8-(1-methyl-1H-pyrazol-4-yl)-2-oxo-2,3-dihydroimidazo[4,5-c]-quinolin-1-yl]-N-methyl-nicotinamid], “at least 2000 times”.
As to `COc1cc2ncc3c(c2cc1-c1cnn(C)c1)n(-c1cn(C)nc1F)c(=O)n3C` [compound 141, 1-(3-Fluoro-1-methyl-1H-pyrazol-4-yl)-7-methoxy-3-methyl-8-(1-methyl-1H-pyrazol-4-yl)-1,3-dihydro-imidazo[4,5-c]quinolin-2-one], the “ratio IC50 (ATM):IC50(mTOR), selectivity” value is listed as “at least 2000 times”.
For the compound `COc1cc2ncc3c(c2cc1-c1cn(C)nc1C)n(-c1c(F)cncc1OC(F)F)c(=O)n3C` [compound 147, 1-(3-Difluoromethoxy-5-fluoropyridin-4-yl)-8-(1,3-dimethyl-1H-pyrazol-4-yl)-7-methoxy-3-methyl-1,3-dihydroimidazo[4,5-c]-quinolin-2-one], the “ratio IC50 (ATM):IC50(mTOR), selectivity” value was “at least 2000 times”.
On the same count and under the same terms, then `CCc1cnccc1-n1c(=O)n(C)c2cnc3cc(OC)c(-c4cnn(CC)c4)cc3c21` [compound 157, 8-(1-Ethyl-1H-pyrazol-4-yl)-1-(3-ethylpyridin-4-yl)-7-methoxy-3-methyl-1,3-dihydroimidazo[4,5-c] quinolin-2-one], with “at least 2000 times”.
For `COc1ccc(-c2cc3c(cc2OC)ncc2c3n(-c3cn(C)nc3F)c(=O)n2C)cn1` [compound 159, 1-(3-Fluoro-1-methyl-1H-pyrazol-4-yl)-7-methoxy-8-(6-methoxypyridin-3-yl)-3-methyl-1,3-dihydroimidazo-[4,5-c]quinolin-2-one], the “ratio IC50 (ATM):IC50(mTOR), selectivity” value is recorded as “at least 2000 times”.

Another assay relates to CHK2 phosphorylation (phospho-Thr68) in HCT116 cells. The experiment in a line: Cellular pCHK2 assay, bleomycin-induced phosphorylation of CHK2 (phospho-Thr68), immunofluorescence high content. It is filed as cell-based. To be noted: Homo sapiens, HCT-116; HCT116 cells, 10 μM bleomycin, 4 h; read-out: IC50 (pCHK2). An excerpt: For the identification of substances which inhibit the phosphorylation of the protein kinase CHK2 at the amino acid threonine 68, an immunofluorescence-based “high content” analysis assay was used in HCT116 cells.
In vitro cell-based immunofluorescence assay for the identification of inhibitors of bleomycin-induced phosphorylation of CHK2 (phospho-Thr68) in the human colon carcinoma cell line HCT116:
HCT116 cells are sown out in a defined cell density in 384-well plates in culture medium (DMEM high glucose, 2 mM GlutaMax, 1 mM Na pyruvate, 10% FCS) and incubated overnight at 37° C. and 10% of CO2. On the following day, the test substances are added in a defined concentration range (1 nM to 30 μM) in combination with 10 μM bleomycin, where the concentration of the solvent DMSO is kept constant at 0.5%. After incubation for four hours at 37° C. and 10% of CO2, the cells are fixed (5 min, 4% formaldehyde in PBS), permeabilised (10 min, 0.2% Triton X-100 in PBS) and, after blocking of nonspecific binding sites (10% goat serum, 1% BSA in PBS), incubated overnight at 4° C. with a specific anti-pCHK2 antibody (cell signalling #2661). pCHK2 (Thr68) is determined using an Alexa488-labelled secondary anti-rabbit IgG antibody. Parallel staining of DNA with propidium iodide enables determination of the cell count. The pCHK2 signal is detected using a high-content imager (Molecular Devices IMX Ultra) and automatic image analysis using the MetaXpress software belonging to the instrument. The number of cell nuclei which have a pCHK2 signal above a defined background is determined.
In the case of `COc1cc2ncc3c(c2cc1-c1cnc2nc(C)[nH]c2c1)n(-c1c(F)cncc1OC)c(=O)n3C` [compound 152, 1-(3-Fluoro-5-methoxy-pyridin-4-yl)-7-methoxy-3-methyl-8-(2-methyl-1H-imidazo[4,5-b]pyridin-6-yl)-1,3-dihydroimidazo[4,5-c]-quinolin-2-one], the concentration for half-maximal inhibition (IC50) is less than 0.2 µM.
The same measure, in the same setting: then `COc1cnc(-n2c(=O)n(C)c3cnc4cc(OC)c(-c5ccc6nc[nH]c6c5)cc4c32)c(F)c1` [compound 153, 8-(3H-Benzimidazol-5-yl)-1-(3-fluoro-5-methoxypyridin-2-yl)-7-methoxy-3-methyl-1,3-dihydroimidazo[4,5-c]-quinolin-2-one], with 0.2 to 1 µM.
Turning to `COc1cc2ncc3c(c2cc1-c1cnc2nc(C)[nH]c2c1)n(-c1cn(C)nc1C)c(=O)n3C` [compound 154, 1-(1,3-Dimethyl-1H-pyrazol-4-yl)-7-methoxy-3-methyl-8-(2-methyl-1H-imidazo[4,5-b]pyridin-6-yl)-1,3-dihydro-imidazo[4,5-c]quinolin-2-one], the IC50 fell in the range of 1 to 2 µM.
`CCc1cnccc1-n1c(=O)n(C)c2cnc3cc(OC)c(-c4cnn(C)c4)cc3c21` [compound 156, 1-(3-Ethylpyridin-4-yl)-7-methoxy-3-methyl-8-(1-methyl-1H-pyrazol-4-yl)-1,3-dihydroimidazo[4,5-c] quinolin-2-one]: the IC50 is 0.2 to 1 µM.
The same measure, in the same setting: then `COc1cc2ncc3c(c2cc1-c1cnn(C)n1)n(-c1ncccc1F)c(=O)n3C` [compound 158, 1-(3-Fluoropyridin-2-yl)-7-methoxy-3-methyl-8-(2-methyl-2H-1,2,3-triazol-4-yl)-1,3-dihydroimidazo-[4,5-c]quinolin-2-one], with 0.2 to 1 µM; and `COc1cc2ncc3c(c2cc1-c1cnn(C)c1)n(-c1ccncc1C1CC1)c(=O)n3C` [compound 200, 1-(3-Cyclopropylpyridin-4-yl)-7-methoxy-3-methyl-8-(1-methyl-1H-pyrazol-4-yl)-1,3-dihydroimidazo[4,5-c] quinolin-2-one], with 0.2 to 1 µM; and `COc1cc2ncc3c(c2cc1-c1cnn(C)c1)n(-c1c(F)cncc1C1CC1)c(=O)n3C` [compound 202, 1-(3-Cyclopropyl-5-fluoro-pyridin-4-yl)-7-methoxy-3-methyl-8-(1-methyl-1H-pyrazol-4-yl)-1,3-dihydro-imidazo[4,5-c]quinolin-2-one], with 0.2 to 1 µM.
Consider `COc1cc2ncc3c(c2cc1-c1cn(C)nc1C)n(-c1ncc(OCS(C)(=O)=O)cc1F)c(=O)n3C` [compound 203, 8-(1,3-Dimethyl-1H-pyrazol-4-yl)-1-(3-fluoro-5-methyl-sulfonylmethoxypyridin-2-yl)-7-methoxy-3-methyl-1,3-dihydroimidazo[4,5-c]-quinolin-2-one], for which the IC50 was 0.2 to 1 µM.
Still for that read-out and setting: to `C=CCOc1cnc(-n2c(=O)n(C)c3cnc4cc(OC)c(-c5cnn(C)c5)cc4c32)c(F)c1` [compound 204, 1-(5-Allyloxy-3-fluoropyridin-2-yl)-7-methoxy-3-methyl-8-(1-methyl-1H-pyrazol-4-yl)-1,3-dihydroimidazo[4,5-c]-quinolin-2-one] belongs 0.2 to 1 µM.
Still for that read-out and setting: to `CNCCOc1cnc(-n2c(=O)n(C)c3cnc4cc(OC)c(-c5cnn(C)c5)cc4c32)c(F)c1` [compound 206] belongs 0.2 to 1 µM; to `COc1cc2ncc3c(c2cc1-c1cnn(C)c1)n(-c1ncc(OCC2CN(C)C2)cc1F)c(=O)n3C` [compound 207, 1-[3-Fluoro-5-(1-methyl-azetidin-3-ylmethoxy)-pyridin-2-yl]-7-methoxy-3-methyl-8-(1-methyl-1H-pyrazol-4-yl)-1,3-dihydro-imidazo[4,5-c]quinolin-2-one], 0.2 to 1 µM.
Same read-out and setting: to `COc1cc2ncc3c(c2cc1-c1cnn(C2CNC2)c1)n(-c1c(F)cncc1OC)c(=O)n3C` [compound 208, 8-[1-(Azetidin-3-yl)-1H-pyrazol-4-yl]-1-(3-fluoro-5-methoxypyridin-4-yl)-7-methoxy-3-methyl-1H,2H,3H-imidazo[4,5-c]-quinolin-2-one] belongs 1 to 2 µM.

In general, IC50 refers to the concentration at which inhibition is half-maximal.
